Measured values as given in EP4786467A1, “QUINOLINONE COMPOUND, PREPARATION METHOD THEREFOR AND USE THEREOF” (Vigonvita Life Sciences Co., Ltd., priority 2023, dated 2025).

How the values were obtained:
[1] = biological target: T1, recombinant human 5-HT1A receptor (Homo sapiens, UniProt P08908); test: 5-HT1A Receptor Agonist Activity Assay (LANCE cAMP, inhibition of cAMP production); format: cell-based; details: CHO-K1 cells expressing the recombinant human 5-HT1A receptor, read-out: 5-HT1A agonistic activity (EC50)
T1 construct: expressed in transfected cells
T1 sequence (P08908 1-422): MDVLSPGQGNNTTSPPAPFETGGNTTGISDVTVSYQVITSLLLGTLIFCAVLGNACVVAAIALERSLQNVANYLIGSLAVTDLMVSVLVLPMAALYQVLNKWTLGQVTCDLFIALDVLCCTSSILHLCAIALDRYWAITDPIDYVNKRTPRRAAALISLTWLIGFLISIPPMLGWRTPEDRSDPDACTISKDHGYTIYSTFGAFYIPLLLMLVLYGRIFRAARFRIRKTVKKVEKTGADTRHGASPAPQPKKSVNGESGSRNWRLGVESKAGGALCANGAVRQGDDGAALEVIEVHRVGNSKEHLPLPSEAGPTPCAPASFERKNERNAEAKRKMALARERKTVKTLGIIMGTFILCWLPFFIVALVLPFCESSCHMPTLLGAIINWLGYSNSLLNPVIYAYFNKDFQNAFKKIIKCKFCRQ
Method: The agonistic effect of the compounds on the 5-HT1A receptor was evaluated by testing their inhibitory effect on cAMP production in CHO-K1 cells. 8-OH-DPAT was used as a positive control. The specific procedures were as follows: a) The compounds (test compounds and positive control) were prepared to a stock concentration of 10 mM using DMSO, and Forskolin was prepared to a stock concentration of 10 mM. The initial test concentration of 8-OH-DPAT was 1 µM, diluted 3X. The initial test concentration of the test compounds was 0.1 µM, diluted 3X, and each concentration was repeated twice. 100 nL of the compounds and 10 nL of Forskolin were transferred to the test plate using an Echo, with a final DMSO concentration <1%. b) The stable 5-HT1A cell line was taken out from the incubator to observe the cell status. When the cell density reached 80%-90%, the culture medium was discarded and the cells were washed with 5 mL of DPBS. After discarding DPBS, 2 mL of trypsin was added, and the cells were incubated at 37 °C for 2-5 min. After adding 10 mL of complete culture medium, the cells were collected, which was centrifuged at 1000 rpm for 4 min, and the supernatant was discarded. […]

[2] = biological target: T2, human SERT (Homo sapiens, UniProt P31645); test: 5-HT Transporter Inhibitory Activity Assay (Neurotransmitter transporter uptake assay kit); format: cell-based; details: HEK-293 cells expressing human SERT
T2 construct: expressed in transfected cells; host or cells: HEK-293 (HEK-hSERT cells)
T2 sequence (P31645 whole entry): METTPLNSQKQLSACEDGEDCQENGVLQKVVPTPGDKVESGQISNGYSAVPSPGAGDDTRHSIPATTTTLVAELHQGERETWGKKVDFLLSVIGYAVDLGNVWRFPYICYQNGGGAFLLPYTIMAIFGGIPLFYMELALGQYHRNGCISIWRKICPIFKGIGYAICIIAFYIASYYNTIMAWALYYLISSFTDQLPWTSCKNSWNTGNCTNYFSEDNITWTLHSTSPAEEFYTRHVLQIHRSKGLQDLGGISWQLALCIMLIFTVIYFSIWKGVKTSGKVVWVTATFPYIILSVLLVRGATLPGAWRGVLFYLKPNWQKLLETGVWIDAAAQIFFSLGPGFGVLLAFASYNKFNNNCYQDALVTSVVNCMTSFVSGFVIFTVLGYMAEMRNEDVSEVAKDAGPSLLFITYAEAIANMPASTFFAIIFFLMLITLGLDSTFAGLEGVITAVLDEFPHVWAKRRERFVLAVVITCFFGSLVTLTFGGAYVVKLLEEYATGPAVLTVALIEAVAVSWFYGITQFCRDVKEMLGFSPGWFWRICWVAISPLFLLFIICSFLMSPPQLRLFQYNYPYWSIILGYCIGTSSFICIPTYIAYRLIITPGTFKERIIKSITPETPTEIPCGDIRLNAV
Method: The inhibitory effect of the compounds on the 5-HT transporter in HEK-293 cells expressing human SERT was tested using the Neurotransmitter transporter uptake assay kit (Molecular Devices product). The test was performed according to the kit instructions, using citalopram as a positive control. The specific procedure was as follows: a) HEK-hSERT cells were seeded at 20,000 cells/well in a 384-well plate and then incubated overnight at 37°C in an incubator. b) The following day, the compounds (test compounds and positive control) were diluted using DMSO from 20 mM DMSO solution to the working concentration. Each test compound and citalopram were transferred to a 384-well plate using a detection buffer containing 0.1% BSA. The initial test concentration of citalopram was 1 µM, diluted 3X. The initial test concentration of the test compounds was 10 µM, diluted 4X, with each concentration repeated twice. c) The cell culture 384-well plate was taken out from the incubator, the culture medium was aspirated from the wells, and 25 µL of the test compound solution was added per well. The cells were incubated at 37°C for 30 min. After incubation, 25 µL of a dye solution was added to each well and the cells were incubated at 37°C for 30 min. d) the fluorescence values were read on a Flexstation 3 and the data were analyzed using Graphpad Prism.

[3] = Mouse Pharmacokinetic Experiment (plasma and brain); format: in vivo, Male ICR mice; details: for bioavailability: mouse, iv 0.3 mg/kg, po 1 mg/kg; for Cmax / AUC(0-t): oral (po) dose 1 mg/kg
Method: Animal: Male ICR mice. Animals were randomly assigned to the treatment group and fasted for 12 hours before administration.
Drug to be tested: The compounds were dissolved in solvent (0.5% CMC-Na). The intravenous (iv) dose was 0.3 mg/kg, with an administration volume of 5 ml/kg; the oral (po) dose was 1 mg/kg, with an administration volume of 10 mL/kg body weight.
Sample Collection and Bioanalysis: After administration, blood was collected from the orbital sinus of mice at 0.083, 0.25, 0.5, 1, 2, 4, 6, 8, and 24 hours (n=3 at each time point) and placed in EP tubes containing heparin sodium. Mice were euthanized immediately via vertebral dislocation after blood collection, and their brains were harvested at the corresponding time points. All samples were collected immediately, rapidly frozen, and stored at -70°C for later use.
Plasma samples were obtained by whole blood centrifugation. 10 µL of plasma was then mixed with 190 µL of internal standard solution (20 ng/mL metoprazor in acetonitrile containing 0.1% formic acid). After mixing, the mixture was centrifuged at 13000 rpm for 10 min. For each sample, 120 µL of the supernatant was collected, and 0.5-10 µL (depending on the sensitivity of the compound) was then taken for drug analysis using an appropriate liquid chromatography-tandem mass spectrometry (LC-MS/MS) method. Standards for each analyte were used for calibration and identification.
The brain tissue and extract were homogenized at a brain tissue:extract (50% acetonitrile-water) ratio = 1 (g): 8 (ml) using 5 3mm-magnetic beads in an OMNI Bead Ruptor 24 Elite homogenizer at 3.2 m/s for 2 min. The mixture was centrifuged at 4°C, 3000g for 3 min. 50 µL of supernatant was collected and added with 200 µL of internal standard solution (20 ng/mL dissolved in 80% acetonitrile-water). After mixing well, the mixture was centrifuged at 13000 rpm for 10 min. 120 µL of supernatant was collected for each sample. Then, 0.5-10 µL of the supernatant (depending on the sensitivity of the compound) was taken and analyzed using an appropriate LC-MS/MS method. Standards for each analyte were used for calibration and identification.
Data Analysis: Drug concentrations below the limit of quantitation (LLOQ) were recorded as zero. Pharmacokinetic data analysis was performed in PK Solver using non-compartmental, bolus intravenous injection, or extravascular administration analysis model. Data points below LLOQ were excluded from the analysis to improve the validity of t1/2 calculation.

[4] = Rat Pharmacokinetic Experiment; format: in vivo, male SD rats; details: for AUC(0-t) / Cmax: rat plasma, oral (po) dose 3 mg/kg; for bioavailability: rat, iv 1 mg/kg, po 3 mg/kg
Method: The compound of Example 2 was used in a pharmacokinetic experiment in rats (non-fasted male SD rats). The compound of the present invention was dissolved in a solvent (0.5% CMC-Na). The intravenous (iv) dose was 1 mg/kg, with an administration volume of 5 ml/kg; the oral (po) dose was 3 mg/kg, with an administration volume of 10 mL/kg body weight. Approximately 0.3 mL of blood samples were collected from the jugular vein of rats at the following time points: 0.083, 0.25, 0.5, 1, 2, 4, 6, 8, and 24 h (n=3 at each time point). The collected blood was stored under ice-cooling conditions. Plasma was rapidly separated by centrifugation, and a precipitant was added. The concentration of the test compound was quantified using LC-MS.

SMILES | EC50 [1] [nM] | IC50 [2] [nM] | also measured
O=C1CCc2ccc(CCN3CCN(c4cc(F)cc5occc45)CC3)cc2N1 [Example 1, 7-(2-(4-(6-fluorobenzofuran-4-yl)piperazin-1-yl)ethyl)-3,4-dihydroquinolin-2(1H)-one] | 0.5 | 7.8 | bioavailability ([3]; male, ICR, plasma): 100%; Cmax ([3]; male, ICR, mouse brain tissue): 368 ng/g; AUC(0-t) ([3]; male, ICR, mouse plasma): 1170 ng·h/mL; Cmax ([3]; male, ICR, mouse plasma): 68.4 ng/mL
O=C1CCc2ccc(CCN3CCN(c4cc(F)cc5c4CCO5)CC3)cc2N1 [Example 2, 7-(2-(4-(6-fluoro-2,3-dihydrobenzofuran-4-yl)piperazin-1-yl)ethyl)-3,4-dihydroquinolin-2(1H)-one] |  |  | Cmax ([3]; in vivo, mouse brain tissue): 413 ng/g; AUC(0-t) ([3]; in vivo, mouse plasma): 794 ng·h/mL; Cmax ([3]; in vivo, mouse plasma): 72.8 ng/mL; bioavailability ([3]; in vivo): 77%; AUC(0-t) ([4]; in vivo): 5320 ng·h/mL; Cmax ([4]; in vivo): 815 ng/mL; bioavailability ([4]; in vivo): 100%
O=c1ccc2ccc(CCN3CCN(c4cc(F)cc5ccoc45)CC3)cc2[nH]1 [Example 3, 7-(2-(4-(5-fluorobenzofuran-7-yl)piperazin-1-yl)ethyl)quinolin-2(1H)-one] | 1.3 |  | 
O=C1CCc2ccc(CCN3CCN(c4cc(F)cc5c4OCC5)CC3)cc2N1 [Example 5, 7-(2-(4-(5-fluoro-2,3-dihydrobenzofuran-7-yl)piperazin-1-yl)ethyl)-3,4-dihydroquinolin-2(1H)-one] | 1.5 | 13 | 
O=C1CCc2ccc(CCN3CCN(c4cc(F)cc5ccoc45)CC3)cc2N1 [Example 6, 7-(2-(4-(5-fluorobenzofuran-7-yl)piperazin-1-yl)ethyl)-3,4-dihydroquinolin-2(1H)-one] |  | 12 | 
O=c1ccc2ccc(CCN3CCN(c4cc(F)cc5c4CCO5)CC3)cc2[nH]1 [Example 7, 7-(2-(4-(6-fluoro-2,3-dihydrobenzofuran-4-yl)piperazin-1-yl)ethyl)quinolin-2(1H)-one] |  | 9 | 
O=C1CCc2ccc(CCN3CCN(c4ccc(F)c5sccc45)CC3)cc2N1 [Example 12, 7-(2-(4-(7-fluorobenzo[b]thiophene-4-yl)piperazin-1-yl)ethyl)-3,4-dihydroquinolin-2(1H)-one] | 0.8 |  | 
O=C1CCc2ccc(CCN3CCN(c4c(F)ccc5ccsc45)CC3)cc2N1 [Example 14, 7-(2-(4-(6-fluorobenzo[b]thiophene-7-yl)piperazin-1-yl)ethyl)-3,4-dihydroquinolin-2(1H)-one] | 1 |  | 
O=C1CCc2ccc(CCN3CCN(c4cc(F)cc5ccsc45)CC3)cc2N1 [Example 15, 7-(2-(4-(5-fluorobenzo[b]thiophene-7-yl)piperazin-1-yl)ethyl)-3,4-dihydroquinolin-2(1H)-one] | 0.5 | 26 | 
O=c1ccc2ccc(CCN3CCN(c4cc(F)cc5ccsc45)CC3)cc2[nH]1 [Example 16, 7-(2-(4-(5-fluorobenzo[b]thiophene-7-yl)piperazin-1-yl)ethyl)quinolin-2(1H)-one] | 0.5 |  | 
[2H]C1([2H])Cc2ccc(CCN3CCN(c4cc(F)cc5c4CCO5)CC3)cc2NC1=O [Example 22, 7-(2-(4-(6-fluoro-2,3-dihydrobenzofuran-4-yl)piperazin-1-yl)ethyl)-3,4-dihydroquinolin-2(1H)-one-3,3-d2] |  | 12.4 | 
O=C1CCc2ccc(CCN3CCN(c4cc(F)cc5c4OCO5)CC3)cc2N1 [Example 39, 7-(2-(4-(6-fluorobenzo[d][1,3]dioxol-4-yl)piperazin-1-yl)ethyl)-3,4-dihydroquinolin-2(1H)-one] |  | 10.6 | 
[2H]C1([2H])CC(=O)Nc2cc(CCN3CCN(c4cc(F)cc5occc45)CC3)ccc21 [Example 41, 7-(2-(4-(6-fluorobenzofuran-4-yl)piperazin-1-yl)ethyl)-3,4-dihydroquinolin-2(1H)-one-4,4-d2] | 0.7 |  | 
[2H]C1([2H])C(=O)Nc2cc(CCN3CCN(c4cc(F)cc5occc45)CC3)ccc2C1([2H])[2H] [Example 43, 7-(2-(4-(6-fluorobenzofuran-4-yl)piperazin-1-yl)ethyl)-3,4-dihydroquinolin-2(1H)-one-3,3,4,4-d4] |  | 7.4 | 
O=C1CCc2ccc(CCN3CCN(c4cc(F)cc5sccc45)CC3)cc2N1 [Reference compound, 7-(2-(4-(6-fluorobenzo[b]thiophene-4-yl)piperazin-1-yl)ethyl)-3,4-dihydroquinolin-2(1H)-one, reference compound] | 1 | 15 | bioavailability ([3]; male, ICR, plasma): 50%; Cmax ([3]; male, ICR, mouse brain tissue): 254 ng/g; AUC(0-t) ([3]; male, ICR, mouse plasma): 468 ng·h/mL; Cmax ([3]; male, ICR, mouse plasma): 27.5 ng/mL; bioavailability ([4]; male, SD, plasma): 43%; AUC(0-t) ([4]; male, SD): 1560 ng·h/mL; Cmax ([4]; male, SD): 280 ng/mL
